In ChEMBL document CHEMBL1137017, “In vitro antiviral activity and cross-resistance profile of PL-100, a novel protease inhibitor of human immunodeficiency virus type 1” (Antimicrob Agents Chemother, 2007):
pKi: −log10 of the molar value.

Assays:
[1] = system: Human immunodeficiency virus 1; test: Resistance index, ratio of EC50 for HIV1 with protease 37T/41K/70E mutation to EC50 for wild type HIV1 NL4-3 in HEK293 cells after 48 hrs by replication-deffective luciferase reporter gene-based phenotypic assay; type: functional
[2] = system: Human immunodeficiency virus 1; test: Resistance index, ratio of EC50 for HIV1 with protease 46I/53L/82T/90M mutation to EC50 for wild type HIV1 NL4-3 in HEK293 cells after 48 hrs by replication-deffective luciferase reporter gene-based phenotypic assay; type: functional
[3] = system: Human immunodeficiency virus 1; test: Resistance index, ratio of EC50 for HIV1 with protease 54V/84V mutation to EC50 for wild type HIV1 NL4-3 in HEK293 cells after 48 hrs by replication-deffective luciferase reporter gene-based phenotypic assay; type: functional
Protease = Protease (Human immunodeficiency virus 1, UniProt Q9YQ12); test: Inhibition of HIV1 protease
Protease, sequence (Q9YQ12 whole entry): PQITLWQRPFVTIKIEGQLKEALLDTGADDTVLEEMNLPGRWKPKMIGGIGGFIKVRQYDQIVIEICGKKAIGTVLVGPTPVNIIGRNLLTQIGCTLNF

[4] = system: Human immunodeficiency virus 1; test: Resistance index, ratio of EC50 for HIV1 with protease 54V/82A/84V/90M mutation to EC50 for wild type HIV1 NL4-3 in HEK293 cells after 48 hrs by replication-deffective luciferase reporter gene-based phenotypic assay; type: functional
[5] = system: Human immunodeficiency virus 1; test: Resistance index, ratio of EC50 for HIV1 with protease 33I/46I/84V/88D/90M mutation to EC50 for wild type HIV1 NL4-3 in HEK293 cells after 48 hrs by replication-deffective luciferase reporter gene-based phenotypic assay; type: functional
[6] = system: Human immunodeficiency virus 1; test: Resistance index, ratio of EC50 for HIV1 with protease 48V/54V/82A/90M mutation to EC50 for wild type HIV1 NL4-3 in HEK293 cells after 48 hrs by replication-deffective luciferase reporter gene-based phenotypic assay; type: functional
[7] = system: Human immunodeficiency virus 1; test: Resistance index, ratio of EC50 for HIV1 with protease 46I/47A/84V mutation to EC50 for wild type HIV1 NL4-3 in HEK293 cells after 48 hrs by replication-deffective luciferase reporter gene-based phenotypic assay; type: functional
[8] = system: Human immunodeficiency virus 1; test: Resistance index, ratio of EC50 for HIV1 with protease 46I/88S mutation to EC50 for wild type HIV1 NL4-3 in HEK293 cells after 48 hrs by replication-deffective luciferase reporter gene-based phenotypic assay; type: functional
[9] = system: Human immunodeficiency virus 1; test: Resistance index, ratio of EC50 for HIV1 with protease 32I/46I/47V/50L mutation to EC50 for wild type HIV1 NL4-3 in HEK293 cells after 48 hrs by replication-deffective luciferase reporter gene-based phenotypic assay; type: functional
[10] = system: Human immunodeficiency virus 1; test: Resistance index, ratio of EC50 for HIV1 with protease 33F/54V/73S/82A/90M mutation to EC50 for wild type HIV1 NL4-3 in HEK293 cells after 48 hrs by replication-deffective luciferase reporter gene-based phenotypic assay; type: functional
[11] = system: Human immunodeficiency virus 1; test: Resistance index, ratio of EC50 for HIV1 with protease 32I/46L/47V/84V mutation to EC50 for wild type HIV1 NL4-3 in HEK293 cells after 48 hrs by replication-deffective luciferase reporter gene-based phenotypic assay; type: functional
[12] = system: Human immunodeficiency virus 1; test: Resistance index, ratio of EC50 for HIV1 with protease 33F/54V/82A/84V mutation to EC50 for wild type HIV1 NL4-3 in HEK293 cells after 48 hrs by replication-deffective luciferase reporter gene-based phenotypic assay; type: functional
[13] = system: Human immunodeficiency virus 1; test: Resistance index, ratio of EC50 for HIV1 with protease 33F/54V/82T/84V/90M mutation to EC50 for wild type HIV1 NL4-3 in HEK293 cells after 48 hrs by replication-deffective luciferase reporter gene-based phenotypic assay; type: functional
[14] = system: Human immunodeficiency virus 1; test: Resistance index, ratio of EC50 for HIV1 with protease 33F/46L/53L/54V/82A mutation to EC50 for wild type HIV1 NL4-3 in HEK293 cells after 48 hrs by replication-deffective luciferase reporter gene-based phenotypic assay; type: functional
[15] = system: Human immunodeficiency virus 1; test: Resistance index, ratio of EC50 for HIV1 with protease 46L/54V/82A/90M mutation to EC50 for wild type HIV1 NL4-3 in HEK293 cells after 48 hrs by replication-deffective luciferase reporter gene-based phenotypic assay; type: functional
[16] = system: Human immunodeficiency virus 1; test: Resistance index, ratio of EC50 for HIV1 with protease 33F/54V/82A/84V/90M mutation to EC50 for wild type HIV1 NL4-3 in HEK293 cells after 48 hrs by replication-deffective luciferase reporter gene-based phenotypic assay; type: functional
[17] = system: Human immunodeficiency virus 1; test: Resistance index, ratio of EC50 for HIV1 with protease 46L/48V/82A/84V mutation to EC50 for wild type HIV1 NL4-3 in HEK293 cells after 48 hrs by replication-deffective luciferase reporter gene-based phenotypic assay; type: functional
[18] = molecular target: Protease (Human immunodeficiency virus 1) (UniProt Q9YQ12); test: Inhibition of HIV1 3B protease-mediated gag polyprotein processing in H9 cells assessed as decrease in p24 level by Western blotting; type: cell-based
Protease (Human immunodeficiency virus 1), sequence (Q9YQ12 as listed by the source): as the sequence (Q9YQ12 whole entry) above

[19] = system: Human immunodeficiency virus 1; test: Resistance index, ratio of EC50 for SQV-resistant HIV1 4596 carrying L10R/M46I/L63P/[…]/L90M mutation to EC50 for wild type HIV1 NL4-3 in HEK293 cells after 48 hrs by replication-deffective luciferase reporter gene-based phenotypic assay; type: functional
[20] = system: Human immunodeficiency virus 1; test: Resistance index, ratio of EC50 for HIV1 with protease 24I/33F/54V/82A/84V mutation to EC50 for wild type HIV1 NL4-3 in HEK293 cells after 48 hrs by replication-deffective luciferase reporter gene-based phenotypic assay; type: functional
[21] = system: Human immunodeficiency virus 1; test: Resistance index, ratio of EC50 for HIV1 with protease 24I/33F/46I/54L/82A mutation to EC50 for wild type HIV1 NL4-3 in HEK293 cells after 48 hrs by replication-deffective luciferase reporter gene-based phenotypic assay; type: functional
[22] = system: Human immunodeficiency virus 1; test: Resistance index, ratio of EC50 for HIV1 with protease 33F/54V/73S/82A/84V/90M mutation to EC50 for wild type HIV1 NL4-3 in HEK293 cells after 48 hrs by replication-deffective luciferase reporter gene-based phenotypic assay; type: functional
[23] = system: Human immunodeficiency virus 1; test: Resistance index, ratio of EC50 for HIV1 with protease 33F/46L/54V/82A/84V/90M mutation to EC50 for wild type HIV1 NL4-3 in HEK293 cells after 48 hrs by replication-deffective luciferase reporter gene-based phenotypic assay; type: functional
[24] = system: Human immunodeficiency virus 1; test: Resistance index, ratio of EC50 for HIV1 with protease 46I/82T/84V mutation to EC50 for wild type HIV1 NL4-3 in HEK293 cells after 48 hrs by replication-deffective luciferase reporter gene-based phenotypic assay; type: functional
[25] = system: Human immunodeficiency virus 1; test: Resistance index, ratio of EC50 for HIV1 with protease 84V/90M mutation to EC50 for wild type HIV1 NL4-3 in HEK293 cells after 48 hrs by replication-deffective luciferase reporter gene-based phenotypic assay; type: functional
[26] = system: Human immunodeficiency virus 1; test: Resistance index, ratio of EC50 for HIV1 with protease 33F/50V mutation to EC50 for wild type HIV1 NL4-3 in HEK293 cells after 48 hrs by replication-deffective luciferase reporter gene-based phenotypic assay; type: functional
[27] = system: Human immunodeficiency virus 1; test: Resistance index, ratio of EC50 for HIV1 with protease 30N/88D/90M mutation to EC50 for wild type HIV1 NL4-3 in HEK293 cells after 48 hrs by replication-deffective luciferase reporter gene-based phenotypic assay; type: functional

Row | Compound | Ratio EC50 [1] | Ratio EC50 [2] | Ratio EC50 [3] | pKi (Protease) | Ratio EC50 [4] | Ratio EC50 [5] | Ratio EC50 [6] | Ratio EC50 [7] | Ratio EC50 [8] | Ratio EC50 [9] | Ratio EC50 [10] | Ratio EC50 [11] | Ratio EC50 [12] | Ratio EC50 [13] | Ratio EC50 [14] | Ratio EC50 [15] | Ratio EC50 [16] | Ratio EC50 [17] | Ratio EC50 [20] | Ratio EC50 [21] | also measured
1 | COC(=O)N[C@H](C(=O)N[C@@H](Cc1ccccc1)[C@@H](O)CN(Cc1ccc(-c2ccccn2)cc1)NC(=O)[C@@H](NC(=O)OC)C(C)(C)C)C(C)(C)C [ATAZANAVIR] | 1.5 | 33.7 | 8.3 | 10.41 | 50.5 | 38 | 28 | 9.5 | 3.1 | 81.2 | 11.9 | 25 | 5.5 | 14.1 | 22.7 | 11.8 | 24.7 | 21.5 | – | – | –
2 | COC(=O)N[C@H](C(=O)NCCCC[C@@H](CO)N(CC(C)C)S(=O)(=O)c1ccc(N)cc1)C(c1ccccc1)c1ccccc1 [PPL-100] | 1.9 | 8.3 | 0.8 | 10.44 | 7 | 6.3 | 1.1 | 14.8 | 0.4 | 1.1 | 5.3 | 0.6 | 3.4 | 3.4 | 5.5 | 3.2 | 9.6 | 1.2 | 4.2 | 6.4 | Activity [18]: Dose-dependent effect; Activity [19]: 1.2; Ratio EC50 [22]: 37.2; Ratio EC50 [23]: 18.4; Ratio EC50 [24]: 1.2; Ratio EC50 [25]: 2.3; Ratio EC50 [26]: 2.7; Ratio EC50 [27]: 1.4
3 | Cc1c(O)cccc1C(=O)N[C@@H](CSc1ccccc1)[C@H](O)CN1C[C@H]2CCCC[C@H]2C[C@H]1C(=O)NC(C)(C)C | 1.9 | 32.9 | 15 | 9.51 | 33.1 | 27.9 | 25.4 | 10.4 | 4.6 | 3.5 | 20 | 7.8 | 5.8 | 14.9 | 28.3 | 14.1 | 21.1 | 5.9 | 31.4 | 8.1 | Ratio EC50 [22]: 172.1; Ratio EC50 [23]: 31.4; Ratio EC50 [24]: 1.6; Ratio EC50 [25]: 12.1; Ratio EC50 [26]: 3.6; Ratio EC50 [27]: 42.1
